Test results published in patent US9670229B2, “5-HT3 receptor antagonists” (Takeda Pharmaceutical Company Limited, priority 2012, dated 2017).

target: 5-HT3a receptor expressed in HEK-293T cells (Homo sapiens (Human), UniProt P46098); assay: Inhibition of Ca flux activity of 5-HT3 in vitro assay; format: cell-based; settings: approximate IC50; calcium flux, 5HT 216 nM, HEK-293T cells transfected with 5-HT3a
Description: The 5-HT3 antagonist activity of the compounds of the invention was determined by measuring the ability of the compounds to inhibit the calcium flux activity of […] receptor expressed in HEK-293T cells. HEK-293T cells were transfected with the 5-HT3a expression construct using Xtreme Gene 9 (Roche) in 150 mm tissue culture treated plates and incubated for 24 hours at 37° C. Cells were then split and plated at a density of 60K cells/well in poly-lysine coated, black 96-well plates with clear bottoms (BD BioSciences) and incubated overnight at 37° C. Growth media was removed and cells loaded with 200 uL calcium indicator dye in HBSS containing 20 mM HEPES (Calcium 5 Assay kit, Molecular Devices) and incubated at 37° C. for 1 hour. While cells were incubating, the 10× antagonist and agonist/antagonist addition plates were made. For 10× antagonist plate: half log serial dilutions (final concentrations range from 10^−7 through 10^−10 with the bottom well a negative, no ligand control) were made from test compounds in DMSO at a 1000× concentration and then diluted to 10× in HBSS/20 mM HEPES. For addition plate: 5HT was diluted to 100× in HBSS/20 mM HEPES (final concentration in the assay-216 nM) and 15 uL was added to each well of the addition plate, 15 uL of 10× compound was also added to the addition plate, and finally 120 uL of HBSS/20 mM HEPES (for a total of 150 uL). Cells were then removed from the incubator and equilibrated to room temperature for 10 minutes, then 22.5 uL of 10× test compounds were added in triplicate to the plates and incubated at room temperature for 10 minutes (Tropisetron was used as a positive control in every assay). Test plate and addition plate were loaded into the FlexStation III (Molecular Devices), and using the fluidics, 22.5 uL compound additions were made (at t=˜17 seconds), and fluorescence was measured for 90 seconds, reading every 2.2 seconds. Data sets were analyzed as max minus min using Software Max Pro (Molecular Devices). IC50 curves were generated using non-linear regression in GraphPad Prism.

5-HT3a receptor expressed in HEK-293T cells, sequence (P46098 24-478): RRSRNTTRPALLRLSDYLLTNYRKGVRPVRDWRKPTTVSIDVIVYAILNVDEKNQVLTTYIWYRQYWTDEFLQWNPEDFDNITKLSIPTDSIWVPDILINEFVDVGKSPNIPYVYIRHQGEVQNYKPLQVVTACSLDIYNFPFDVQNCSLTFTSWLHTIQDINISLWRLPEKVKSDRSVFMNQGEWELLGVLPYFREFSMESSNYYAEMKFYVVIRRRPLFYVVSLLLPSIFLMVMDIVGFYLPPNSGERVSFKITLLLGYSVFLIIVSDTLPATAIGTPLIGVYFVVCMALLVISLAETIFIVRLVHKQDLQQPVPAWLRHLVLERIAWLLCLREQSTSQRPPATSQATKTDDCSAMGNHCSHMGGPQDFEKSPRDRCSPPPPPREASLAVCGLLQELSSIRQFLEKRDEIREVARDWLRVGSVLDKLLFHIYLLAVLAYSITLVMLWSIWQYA

Compound	IC50
CN1[C@@H]2COC[C@H]1C[C@@H](NC(=O)c1cn(-c3ccccn3)c3ccccc13)C2 [Compound 6, N-((1R,5S,7S)-9-methyl-d3-3-oxa-9-azabicyclo[3.3.1]nonan-7-yl)-1-(pyridin-2-yl)-1H-indole-3-carboxamide, 2,2,2-trifluoroacetate]	1.1 nM
CN1[C@@H]2COC[C@H]1C[C@@H](OC(=O)c1cn(-c3cnn(C)c3)c3ccccc13)C2 [Compound 26, (1R,5S,7S)-9-methyl-3-oxa-9-azabicyclo[3.3.1]nonan-7-yl 1-(1-methyl-1H-pyrazol-4-yl)-1H-indole-3-carboxylate]	1.2 nM
CN1[C@@H]2COC[C@H]1C[C@@H](OC(=O)c1cn(-c3cn[nH]c3)c3ccccc13)C2 [Compound 29, (1R,5S,7S)-9-methyl-3-oxa-9-azabicyclo [3.3.1]nonan-7-yl 1-(1H-pyrazol-4-yl)-1H-indole-3-carboxylate]	0.462 nM
CN1[C@@H]2COC[C@H]1C[C@@H](NC(=O)c1cn(-c3ccc[n+]([O-])c3)c3ccccc13)C2 [Compound 32, 3-(3-(((1R,5S,7S)-9-methyl-3-oxa-9-azabicyclo[3.3.1]nonan-7-yl)carbamoyl)-1H-indol-1-yl)pyridine 1-oxide]	1.36 nM
(1R,5S,7S)-9-methyl-3-oxa-9-azabicyclo [3.3.1]nonan-7-yl 1-(1-(2-fluoroethyl)- 1H-pyrazol-4-yl)-1H-indole-3-carboxylate, 2,2,2-trifluoroacetic acid salt [Compound 18]	2.01 nM
